Reference: patent publication EP2857388A1, “Azoles containing sulfone” (Grünenthal GmbH, priority 2013, dated 2015)

Molecular target: T1, human B1R (Homo sapiens, UniProt P46663)
T1 construct: expressed in transfected cells; host or cells: CHO K1 cells (Chinese Hamster Ovary), stably transfected
T1 sequence (P46663 1-353): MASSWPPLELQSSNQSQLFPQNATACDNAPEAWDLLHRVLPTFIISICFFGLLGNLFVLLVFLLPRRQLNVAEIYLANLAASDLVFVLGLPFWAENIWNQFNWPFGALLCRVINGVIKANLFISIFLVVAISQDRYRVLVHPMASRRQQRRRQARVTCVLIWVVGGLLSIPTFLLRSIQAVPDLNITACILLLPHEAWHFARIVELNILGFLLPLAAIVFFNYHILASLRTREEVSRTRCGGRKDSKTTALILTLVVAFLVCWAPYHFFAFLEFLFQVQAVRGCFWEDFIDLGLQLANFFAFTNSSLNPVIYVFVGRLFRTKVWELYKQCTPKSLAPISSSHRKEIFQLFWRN
Assay: Functional assay at bradykinin receptor 1 (B1R): Ca2+ fluorescence (Fluo-4) in FLIPR/Novostar, antagonist mode
Type: cell-based
Conditions: test substance 10 µM; CHO K1 cells stably transfected with human B1R gene (hB1R-Zellen); agonist Lys-Des-Arg9-Bradykinin at EC80; % inhibition relative to maximal achievable inhibition; read-out: % Inhibierung (human B1R) bei 10 µM
In short: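 CHO K1 cells stably expressing human B1R were loaded with Fluo-4 and preincubated 6–20 min with test compound before Lys-Des-Arg9-bradykinin at its EC80. Peak fluorescence (ex 488/em 540 nm) gave % inhibition versus maximal inhibition; IC50 from several concentrations, n=2 or 3.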

Row | SMILES | inhibition at 10 µM [%]
1 | COc1cc(C)c(S(=O)(=O)Cc2cc(C)n(CC(=O)NC3CCC(c4ccncc4)CC3(C)C)n2)c(C)c1 (stereo not drawn) [CC-127, N-(2,2-Dimethyl-4-pyridin-4-yl-cyclohexyl)-2-[3-[[(4-methoxy-2,6-dimethyl-phenyl)sulfonyl)-methyl]-5-methyl-1 H-pyrazol-1-yl]-acetamid] | 68
2 | Cc1cccc(Cl)c1S(=O)(=O)Cc1noc(C(=O)NC2CCC(N(C)C)CC2)n1 (stereo not drawn) [CC-11, 3-[[(2-Chlor-6-methyl-phenyl)sulfonyl]-methyl]-N-(4-dimethylamino-cyclohexyl)-[1,2,4]oxadiazol-5-carbonsäure amid] | 95
3 | COCCN1CCC(NC(=O)Cc2nc(CS(=O)(=O)c3c(C)cccc3Cl)no2)C(C)(C)C1 (stereo not drawn) [CC-94, 2-[3-[[(2-Chlor-6-methyl-phenyl)sulfonyl]-methyl]-[1,2,4]oxadiazol-5-yl]-N-[1-(2-methoxy-ethyl)-3,3-dimethyl-piperidin-4-yl]-acetamid] | 100
4 | Cc1cccc(Cl)c1S(=O)(=O)Cc1noc(C(=O)N2CCC3(CC2)CCN(c2ccncc2)C3)n1 [CC-145, [3-[[(2-Chlor-6-methyl-phenyl)sulfonyl]-methyl]-[1,2,4]oxadiazol-5-yl]-(3-pyridin-4-yl-3,8-diazaspiro[4.5]decan-8-yl)-methanon] | 100
5 | COc1cc(C)c(S(=O)(=O)Cc2cn(CC(=O)NC3CCC(N4CCCC4)CC3(C)C)nn2)c(C)c1 (stereo not drawn) [CC-158, N-(2,2-Dimethyl-4-pyrrolidin-1-yl-cyclohexyl)-2-[4-[[(4-methoxy-2,6-dimethyl-phenyl)sulfonyl]-methyl]-1H-[1,2,3]triazol-1-yl]-acetamid] | 100
6 | COc1cc(C)c(S(=O)(=O)Cc2cc(C)n(CC(=O)NC3CCC(NC4CC4)CC3(C)C)n2)c(C)c1 (stereo not drawn) [CC-177, N-[4-(Cyclopropylamino)-2,2-dimethyl-cyclohexyl]-2-[3-[[(4-methoxy-2,6-dimethyl-phenyl)sulfonyl]-methyl]-5-methyl-1 H-pyrazol-1-yl]-acetamid] | 99
7 | Cc1cc(S(=O)(=O)Cc2noc(C(=O)NC3CCC(N4CCCC4)CC3(C)C)n2)c(C)cc1Cl (stereo not drawn) [CC-22, 3-[[(4-Chlor-2,5-dimethyl-phenyl)sulfonyl]-methyl]-N-(2,2-dimethyl-4-pyrrolidin-1-yl-cyclohexyl)-[1,2,4]oxadiazol-5-carbonsäure amid] | 100
8 | Cc1cc(S(=O)(=O)Cc2noc(CC(=O)N(C)C3CCNCC3(C)C)n2)c(C)cc1Cl (stereo not drawn) [CC-100, 2-[3-[[(4-Chlor-2,5-dimethyl-phenyl)sulfonyl]-methyl]-[1,2,4]oxadiazol-5-yl]-N-(3,3-dimethyl-piperidin-4-yl)-N-methyl-acetamid] | 58
9 | COc1cc(C)c(S(=O)(=O)Cc2c(C)nn(CC(=O)NC3CCC(N4CCCC4)CC3)c2C)c(C)c1 (stereo not drawn) [CC-164, 2-[4-[[(4-Methoxy-2,6-dimethyl-phenyl)sulfonyl]-methyl]-3,5-dimethyl-1H-pyrazol-1-yl]-N-(4-pyrrolidin-1-yl-cyclohexyl)-acetamid] | 100
10 | COc1cc(C)c(S(=O)(=O)Cc2noc(C(=O)N3CCC4(CC3)CCN(c3ccncc3)C4)n2)c(C)c1 [CC-139, [3-[[(4-Methoxy-2,6-dimethyl-phenyl)sulfonyl]-methyl]-[1,2,4]oxadiazol-5-yl]-(3-pyridin-4-yl-3,8-diazaspiro[4.5]decan-8-yl)-methanon] | 100
11 | COc1cc(C)c(S(=O)(=O)Cc2cn(CC(=O)NC3CCC(N(C)C)CC3)nn2)c(C)c1 (stereo not drawn) [CC-169, N-(4-Dimethylamino-cyclohexyl)-2-[4-[[(4-methoxy-2,6-dimethyl-phenyl)sulfonyl]-methyl]-1H-[1,2,3]triazol-1-yl]-acetamid] | 100
12 | Cc1cccc(Cl)c1S(=O)(=O)Cc1noc(C(=O)N2CCC3(CCN(C)C3)C2)n1 (stereo not drawn) [CC-143, [3-[[(2-Chlor-6-methyl-phenyl)sulfonyl]-methyl]-[1,2,4]oxadiazol-5-yl]-(2-methyl-2,8-diazaspiro-[4.4]nonan-8-yl)-methanon] | 82
13 | Cc1cccc(Cl)c1S(=O)(=O)Cc1noc(CC(=O)NC2CCC(N3CCCC3)CC2)n1 (stereo not drawn) [CC-93, 2-[3-[[(2-Chlor-6-methyl-phenyl)sulfonyl]-methyl]-[1,2,4]oxadiazol-5-yl]-N-(4-pyrrolidin-1-yl-cyclohexyl)-acetamid] | 100
14 | COc1cc(C)c(S(=O)(=O)Cc2cc(C)n(CC(=O)NC3CCC(N4CCCC4)CC3)n2)c(C)c1 (stereo not drawn) [CC-156, 2-[3-[[(4-Methoxy-2,6-dimethyl-phenyl)sulfonyl]-methyl]-5-methyl-1H-pyrazol-1-yl]-N-(4-pyrrolidin-1-yl-cyclohexyl)-acetamid] | 98
15 | COc1cc(C)c(S(=O)(=O)Cc2c(C)nn(CC(=O)NC3CCC(N(C)C)CC3)c2C)c(C)c1 (stereo not drawn) [CC-168, N-(4-Dimethylamino-cyclohexyl)-2-[4-[[(4-methoxy-2,6-dimethyl-phenyl)sulfonyl]-methyl]-3,5-dimethyl-1 H-pyrazol-1-yl]-acetamid] | 100
16 | Cc1cc(S(=O)(=O)Cc2noc(CC(=O)NC3CCN(C)CC3(C)C)n2)c(C)cc1Cl (stereo not drawn) [CC-105, 2-[3-[[(4-Chlor-2,5-dimethyl-phenyl)sulfonyl]-methyl]-[1,2,4]oxadiazol-5-yl]-N-(1,3,3-trimethyl-piperidin-4-yl)-acetamid] | 88
17 | COc1cc(C)c(S(=O)(=O)Cc2nnc(CC(=O)NC3CCC(N(C)C)CC3)o2)c(C)c1 (stereo not drawn) [CC-34, N-(4-Dimethylamino-cyclohexyl)-2-[5-[[(4-methoxy-2,6-dimethyl-phenyl)sulfonyl]-methyl]-[1,3,4]oxadiazol-2-yl]-acetamid] | 100
18 | Cc1cccc(Cl)c1S(=O)(=O)Cc1noc(CC(=O)NC2CCC(NC3CC3)CC2(C)C)n1 (stereo not drawn) [CC-95, 2-[3-[[(2-Chlor-6-methyl-phenyl)sulfonyl]-methyl]-[1,2,4]oxadiazol-5-yl]-N-[4-(cyclopropylamino)-2,2-dimethyl-cyclohexyl]-acetamid] | 100
19 | COc1cc(C)c(S(=O)(=O)Cc2nc(CC(=O)NC3CCC(N4CCCC4)CC3(C)C)no2)c(C)c1 (stereo not drawn) [CC-26, N-(2,2-Dimethyl-4-pyrrolidin-1-yl-cyclohexyl)-2-[5-[[(4-methoxy-2,6-dimethyl-phenyl)sulfonyl]-methyl]-[1,2,4]oxadiazol-3-yl]-acetamid] | 100
20 | COc1cc(C)c(S(=O)(=O)Cc2c(C)nn(CC(=O)NC3CCC(N4CCN(C)CC4)CC3(C)C)c2C)c(C)c1 (stereo not drawn) [CC-166, N-[2,2-D imethyl-4-(4-methyl-piperazin-1-yl)-cyclohexyl]-2-[4-[[(4-methoxy-2,6-dimethyl-phenyl)sulfonyl]-methyl]-3,5-dimethyl-1 H-pyrazol-1-yl]-acetamid] | 100

Continued, values first:

Row | inhibition at 10 µM [%] | SMILES
21 | 99 | COc1cc(C)c(S(=O)(=O)Cc2noc(CC(=O)N(C)C3CCN(c4cc(C)nc(C)n4)CC3)n2)c(C)c1 [SC-42, N-[1-(2,6-Dimethyl-pyrimidin-4-yl)-piperidin-4-yl]-2-[3-[[(4-methoxy-2,6-dimethyl-phenyl)sulfonyl]-methyl]-[1,2,4]oxadiazol-5-yl]-N-methyl-acetamid]
22 | 100 | COc1cc(C)c(S(=O)(=O)Cc2noc(CC(=O)N(C)C3CCN(c4ccncc4F)CC3)n2)c(C)c1 [SC-70, N-[1-(3-Fluor-pyridin-4-yl)-piperidin-4-yl]-2-[3-[[(4-methoxy-2,6-dimethyl-phenyl)sulfonyl]-methyl]-[1,2,4]oxadiazol-5-yl]-N-methyl-acetamid]
23 | 100 | COc1cc(C)c(S(=O)(=O)Cc2noc(CC(=O)N(C)C3CCN(c4ccnc(N(C)C)n4)CC3)n2)c(C)c1 [SC-66, N-[1-(2-Dimethylamino-pyrimidin-4-yl)-piperidin-4-yl]-2-[3-[[(4-methoxy-2,6-dimethyl-phenyl)-sulfonyl]-methyl]-[1,2,4]oxadiazol-5-yl]-N-methyl-acetamid]
24 | 100 | COc1cc(C)c(S(=O)(=O)Cc2noc(C(=O)N(C)C3CCN(c4ccnc(N(C)C)c4)CC3)n2)c(C)c1 [SC-69, N-[1-(2-Dimethylamino-pyridin-4-yl)-piperidin-4-yl]-3-[[(4-methoxy-2,6-dimethyl-phenyl)sulfonyl]-methyl]-N-methyl-[1,2,4]oxadiazol-5-carbonsäure amid]
25 | 100 | COc1cc(C)c(S(=O)(=O)Cc2noc(C(=O)NC3CCN(c4ccncc4)CC3(C)C)n2)c(C)c1 (stereo not drawn) [SC-12, N-(3,3-Dimethyl-1-pyridin-4-yl-piperidin-4-yl)-3-[[(4-methoxy-2,6-dimethyl-phenyl)sulfonyl]-methyl]-[1,2,4]oxadiazol-5-carbonsäure amid]
26 | 100 | COc1cc(C)c(S(=O)(=O)Cc2noc(C(=O)N3CCC4(CCN(c5ccncc5)C4)C3)n2)c(C)c1 (stereo not drawn) [SC-05, [3-[[(4-Methoxy-2,6-dimethyl-phenyl)sulfonyl]-methyl]-[1,2,4]oxadiazol-5-yl]-(8-pyridin-4-yl-3,8-diazaspiro[4.4]nonan-3-yl)-methanon]
27 | 98 | COc1cc(C)c(S(=O)(=O)Cc2noc(C(=O)NCC3CCC(c4ccncc4)CC3)n2)c(C)c1 (stereo not drawn) [SC-30, 3-[[(4-Methoxy-2,6-dimethyl-phenyl)sulfonyl]-methyl]-N-[(4-pyridin-4-yl-cyclohexyl)-methyl]-[1,2,4]oxadiazol-5-carbonsäure amid]
